Assay results from the NIST ThermoML archive (doi:10.1016/j.jct.2008.01.012).

How the values were obtained:
[1] = Liquid, Diaphragm manometer
[2] = excess molar enthalpy (molar enthalpy of mixing); xn = mol fraction of the nth substance listed; conditions: 303.15 K, 101 kPa, Liquid, Calvet calorimetry

CCN(CC)CCCN [N,N-diethylpropane-1,3-diamine]
[1]
Conditions | vapor or sublimation pressure [kPa]
303.15 K | 0.31
313.15 K | 0.586
323.15 K | 1.053
333.15 K | 1.809
343.15 K | 2.987

CCN(CC)CCCN [N,N-diethylpropane-1,3-diamine] + CCCCCC
[2]
Conditions | excess molar enthalpy [kcal/mol]
x1 = 0.0798 | 0.107
x1 = 0.1311 | 0.152
x1 = 0.212 | 0.202
x1 = 0.2521 | 0.215
x1 = 0.3083 | 0.232
x1 = 0.3089 | 0.232
x1 = 0.3472 | 0.239
x1 = 0.3858 | 0.24
x1 = 0.4188 | 0.241
x1 = 0.4682 | 0.241
x1 = 0.4835 | 0.241
x1 = 0.5079 | 0.239
x1 = 0.5984 | 0.229
x1 = 0.7107 | 0.194
x1 = 0.802 | 0.146
x1 = 0.8762 | 0.0978

CCN(CC)CCCN [N,N-diethylpropane-1,3-diamine] + CCCCCCC
[2]
Conditions | excess molar enthalpy [kcal/mol]
x1 = 0.0503 | 0.0645
x1 = 0.1038 | 0.121
x1 = 0.1491 | 0.16
x1 = 0.2452 | 0.217
x1 = 0.3961 | 0.255
x1 = 0.4516 | 0.258
x1 = 0.5013 | 0.255
x1 = 0.5973 | 0.235
x1 = 0.7014 | 0.199
x1 = 0.7987 | 0.149
x1 = 0.8974 | 0.0834

CCN(CC)CCCN [N,N-diethylpropane-1,3-diamine] + CCCCCCCCCCCC
[2]
Conditions | excess molar enthalpy [kcal/mol]
x1 = 0.0601 | 0.0915
x1 = 0.1207 | 0.161
x1 = 0.2122 | 0.242
x1 = 0.3099 | 0.298
x1 = 0.4093 | 0.325
x1 = 0.4522 | 0.328
x1 = 0.5054 | 0.327
x1 = 0.6037 | 0.312
x1 = 0.71 | 0.267
x1 = 0.8047 | 0.207
x1 = 0.9021 | 0.119
x1 = 0.9498 | 0.0648

CCCCCCC [heptane]
[1]
Conditions | vapor or sublimation pressure [kPa]
303.15 K | 7.786
313.15 K | 12.32
323.15 K | 18.85
333.15 K | 27.98
343.15 K | 40.43
